Measurements reported in US8680059B2, “Oligopeptide acetate and formulations thereof” (Biotempt B.V., priority 1998, dated 2014).
Several values for one entry are separate records, joined by “and”; a condition that tells them apart may be missing. Equal values may be shown once.

How the values were obtained:
[1] = test system: mice, high dose LPS septic shock; details: single treatment after high dose LPS injection; cited from earlier work
[2] = test system: RAW 264.7 murine macrophage cell line; test: Nitrite (NO) production in LPS-stimulated RAW 264.7 macrophages; format: cell-based; details: co-stimulated with LPS 10 microg/ml, peptide even at 1 pg/ml, 24 hours
Procedure: Cell culture. The RAW 264.7 murine macrophage cell line, obtained from American Type Culture Collection (Manassas, Va., USA), were cultured at 37° C. in 5% CO2 using DMEM containing 10% fetal calf serum (FCS), 50 U/ml penicillin, 50 μg/ml streptomycin, […] Na-pyruvate, 2 mM glutamine and 50 μM 2-mercaptoethanol (Bio Whittaker, Europe). The medium was changed every 2 days.
Nitrite measurements. Nitrite production was measured in the RAW 264.7 macrophage supernatants. The cells (7.5×10^5/ml) were cultured in 48-well plates in […] of culture medium. The cells were stimulated with LPS (10 microg/ml) and/or peptide (1 pg/ml, 1 ng/ml, 1 μg/ml) for 24 hours, then the culture media were collected. Nitrite was measured by adding 100 microl of Griess reagent (Sigma) to 100 microl samples of culture medium. The OD540 was measured using a microplate reader, and the nitrite concentration was calculated by comparison with the OD540 produced using standard solutions of sodium nitrite in the culture medium.

[3] = test system: mice, 25 minutes renal ischemia/reperfusion; test: Mouse renal ischemia reperfusion test (mortality, BUN/serum urea); format: in vivo; parameters: BUN, mean / Urea level: unit not given here; details: 5 mg/kg i.v.
Procedure: SEQ ID NO:2 was tested and compared with PBS (control) in a double blind animal study for the peptide's relative ability to aid recovery in a mouse renal ischemia reperfusion test. In this test, the mice were anesthetized, and one kidney from each mouse was removed. The other kidney was tied off for 25 minutes, and the serum urea levels were allowed to increase. Both before and after tying off, the peptide was administered to thirty (30) different mice (5 mg oligopeptide/kg body mass intravenously), after which, the mortality of the mice was determined for each oligopeptide as well as was the BUN concentration at two hours, 24 hours and 72 hours.
Under inhalation anesthesia, the left kidney with its artery and vein was isolated and occluded for 25 minutes using a microvascular clamp. During surgery animals were placed on a heating path to maintain body temperature at 37° C. Five minutes before placing the clamp, and 5 minutes before releasing the clamp, 5 mg/kg of peptide, dissolved in 0.1 mL of sterile saline, was administered intravenously. After reperfusion of the left kidney the right kidney was removed. Kidney function was assessed by measuring blood urea nitrogen before clamping, and at 2, 24, and 72 hours after reperfusion.
To determine dose-response relationships SEQ ID NO:2, was tested in a dose-response manner in the mice test as described above. Peptides were tested at 0.3, 1, 3, 10 and 30 mg/kg dosages given as described in Example I. Serum urea levels are presented in Table 3.

[4] = test system: BALB/c mice injected i.p. with LPS (E. coli 026:B6); test: LPS-induced septic shock (endotoxin model) in BALB/c mice; format: in vivo, mouse
Procedure: Mice used in sepsis or septic shock experiments: Female BALB/c mice of 8-12 weeks of age were used for all experiments. The animals were bred in our facility under specific pathogen-free conditions according to the protocols described in the Report of European Laboratory Animal Science Associations (FELASA) Working group on Animal Health (Laboratory Animals 28: 1-24, 1994).
Injection protocols: For the endotoxin model, BALB/c mice were injected i.p. with 150-300 μg LPS (E. coli 026:B6; Difco Lab., Detroit, Mich., USA). Control groups were treated with PBS i.p. only. To test the effect of peptides, they were dissolved in PBS and injected i.p. at predetermined points in time after LPS treatment.
Mice were scored for sickness severity using the following measurement scheme: • 0 No abnormalities. • 1 Percolated fur, but no detectable behavior differences compared to normal mice. • 2 Percolated fur, huddle reflex, responds to stimuli (such as tap on cage), just as active during handling as healthy mouse. • 3 Slower response to tap on cage, passive or docile when handled, but still curious when alone in a new setting. • 4 Lack of curiosity, little or no response to stimuli, quite immobile. • 5 Labored breathing, inability or slow to self-right after being rolled onto back (moribund, sacrificed). • D Dead […]
A comparative trial was set up to compare peptide MTR and SEQ ID NO:2. The comparative trial comprised 6 groups of 6 animals; two groups (1A and 1B) receiving placebo (PBS), one group (2) peptide MTR (source Pepscan, Lelystad, NL), one group (3) receiving peptide MTR (source Ansynth), one group (4) receiving peptide SEQ ID NO:2 (source Pepscan) and one group peptide SEQ ID NO:2 (source Ansynth). Peptide/placebo in these groups was administered 2 hours after LPS. LPS (source) was used at 10-11 mg/kg. Sickness scores were done at 0, 2, 22 26 42 and 48 hours after LPS injection.

[5] = peptide twice (t = 2 hr and 24 hr) 5 mg/kg, LPS dose 11, t = 24 hr
[6] = peptide twice (t = 2 hr and 24 hr) 5 mg/kg, LPS dose 11, t = 48 hr
[7] = single dose 5 mg/kg, LPS dose 7*, t = 24 hr
[8] = single dose 5 mg/kg, LPS dose 8, t = 24 hr
[9] = single dose 5 mg/kg, LPS dose 8, t = 48 hr
[10] = single dose 5 mg/kg, LPS dose 10, t = 24 hr
[11] = single dose 5 mg/kg, LPS dose 10, t = 48 hr

VLPALP [6-mer oligopeptide derived from the beta-chain of human chorionic gonadotropin hormone (Khan et al. 2002)]
septic shock in mice [1]: inhibited septic shock in mice

LQGV [tetrapeptide from loop 2 of the beta-subunit of hCG]
NO production [2]: inhibited the production of NO | BUN, mean ([3]; 2 hr after reperfusion): 17.53 | BUN, mean ([3]; 24 hr after reperfusion): 56.08 | BUN, mean ([3]; 72 hr after reperfusion): 73.18 | BUN, mean ([3]; t = 0 hr (before clamping)): 7.518 | effect against LPS-induced sepsis ([4]; 5 mg/kg i.p. after varying doses of LPS (Table 6)): marked protective effect | number of mice with sickness score 5 ([4]; peptide twice (t = 2 hr and 24 hr) 5 mg/kg, LPS dose 10.5, t = 24 hr): 5 | number of mice with score D (dead) ([4]; peptide twice (t = 2 hr and 24 hr) 5 mg/kg, LPS dose 10.5, t = 48 hr): 5 | number of mice with sickness score 4 [4, 5]: 2 | number of mice with sickness score 5 [4, 5]: 4 | number of mice with score D (dead) [4, 6]: 4 | number of mice with sickness score 4 [4, 6]: 2 | number of mice with sickness score 1 ([4]; single dose 5 mg/kg, LPS dose 7**, t = 24 hr): 6 | number of mice with sickness score 1 ([4]; single dose 5 mg/kg, LPS dose 7**, t = 48 hr): 6 | number of mice with sickness score 1 [4, 7]: 2 | number of mice with sickness score 2 [4, 7]: 4 | number of mice with sickness score 1 ([4]; single dose 5 mg/kg, LPS dose 7*, t = 48 hr): 6 | number of mice with sickness score 1 [4, 8]: 3 | number of mice with sickness score 3 [4, 8]: 1 | number of mice with sickness score 2 ([4]; single dose 5 mg/kg, LPS dose 8, t = 24 hr, 5 mg/kg): 5 and 3 | number of mice with sickness score 0 [4, 9]: 4 | number of mice with sickness score 2 [4, 9]: 1 | number of mice with sickness score 1 [4, 10]: 2 | number of mice with sickness score 3 [4, 10]: 1 | number of mice with sickness score 4 [4, 10]: 1 | number of mice with score D (dead) [4, 11]: 1 | number of mice with sickness score 2 [4, 11]: 1 | number of mice with sickness score 1 ([4]; single dose 5 mg/kg, LPS dose 10, t = 48 hr, 5 mg/kg): 6 and 4 | % survival ([4]; single injection 5 mg/kg 2 hours after LPS (300 μg), time 0 hours): 100% | % survival ([4]; single injection 5 mg/kg 2 hours after LPS, time 14 hours): 100% | % survival ([4]; single injection 5 mg/kg 2 hours after LPS, time 24 hours): 100% | % survival ([4]; single injection 5 mg/kg 2 hours after LPS, time 48 hours): 100% | % survival ([4]; single injection 5 mg/kg 2 hours after LPS, time 84 hours): 100% | % survival ([4]; single injection 5 mg/kg 24 hours after LPS (300 μg), time 0 hours): 100% | % survival ([4]; single injection 5 mg/kg 24 hours after LPS, time 14 hours): 100% | % survival ([4]; single injection 5 mg/kg 24 hours after LPS, time 24 hours): 100% | % survival ([4]; single injection 5 mg/kg 24 hours after LPS, time 48 hours): 0% | % survival ([4]; single injection 5 mg/kg 24 hours after LPS, time 84 hours): 0%
